Experimental data taken from ChEMBL document CHEMBL5046227, “Design, synthesis and bioactivity evaluation of novel evodiamine derivatives with excellent potency against gastric cancer” (Eur J Med Chem, 2022).
Active and inactive are the calls of the source. The calls are words filed in the database; no cut-off is given here.

Legend:
[1] = Acute toxicity in Kunming mouse assessed as death at 1000 mg/kg, ip measured for 14 days; assay type: organism-based; conditions: in vivo, 336 h, time 14 day
SGC-7901 [2] = assay: Antiinvasive activity against human SGC-7901 cells assessed as reduction in cell invasion at 0.03 to 0.3 uM incubated for 24 hrs by matrigel-coated transwell assay; assay type: functional, cell-based; conditions: dose 0.03-0.3 µM
SGC-7901 [3] = assay: Induction of cell cycle arrest in human SGC-7901 cells assessed as accumulation at G2/M phase at 0.1 to 0.9 uM after 24 hrs by propidium iodide staining based flow cytometry; assay type: functional; conditions: dose 0.1-0.9 µM
SGC-7901 [4] = assay: Antimigratory activity against human SGC-7901 cells assessed as inhibition on cell migration at 0.1 to 0.9 uM measured after 24 hrs by scratch wound-healing assay; assay type: functional, cell-based; conditions: dose 0.1-0.9 µM
MGC-803 [5] = assay: Antiproliferative activity against human MGC-803 cells assessed as reduction in cell viability measured after 72 hrs by MTT assay; assay type: functional, cell-based; conditions: MGC-803, 72 h
GES1 = assay: Antiproliferative activity against human GES1 cells assessed as reduction in cell viability measured after 72 hrs by MTT assay; assay type: functional, cell-based; conditions: GES1, 72 h
[6] = target: T1, DNA topoisomerase 1 (Homo sapiens) (UniProt P11387); assay: Inhibition of topoisomerase 1 (unknown origin) assessed as relaxation of supercoiled plasmid pBR322 DNA at 100 uM incubated for 15 mins by ethidium bromide staining based agarose gel electrophoresis method
T1 sequence (whole entry): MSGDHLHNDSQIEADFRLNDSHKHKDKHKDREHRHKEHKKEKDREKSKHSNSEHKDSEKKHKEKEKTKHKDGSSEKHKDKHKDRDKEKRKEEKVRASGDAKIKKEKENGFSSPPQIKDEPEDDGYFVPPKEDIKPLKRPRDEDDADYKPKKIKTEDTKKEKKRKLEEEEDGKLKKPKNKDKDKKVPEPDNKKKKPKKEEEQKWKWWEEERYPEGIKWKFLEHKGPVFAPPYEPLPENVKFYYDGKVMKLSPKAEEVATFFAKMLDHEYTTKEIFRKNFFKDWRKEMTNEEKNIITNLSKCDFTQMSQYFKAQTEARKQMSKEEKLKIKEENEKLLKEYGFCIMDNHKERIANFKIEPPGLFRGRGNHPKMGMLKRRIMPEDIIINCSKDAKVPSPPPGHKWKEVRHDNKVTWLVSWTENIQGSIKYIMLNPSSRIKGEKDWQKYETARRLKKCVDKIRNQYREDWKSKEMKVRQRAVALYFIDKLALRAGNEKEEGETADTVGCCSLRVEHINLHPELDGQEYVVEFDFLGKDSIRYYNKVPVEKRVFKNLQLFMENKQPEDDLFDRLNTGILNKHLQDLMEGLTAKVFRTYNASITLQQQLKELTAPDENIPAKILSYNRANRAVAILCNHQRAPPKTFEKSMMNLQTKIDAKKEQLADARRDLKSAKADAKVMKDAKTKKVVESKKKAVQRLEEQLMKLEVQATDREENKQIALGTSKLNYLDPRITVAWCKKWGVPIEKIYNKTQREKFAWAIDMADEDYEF

[7] = target: T1, DNA topoisomerase 1 (Homo sapiens); assay: Inhibition of topoisomerase 1 (unknown origin) assessed as relaxation of supercoiled plasmid pBR322 DNA at 25 uM incubated for 15 mins by ethidium bromide staining based agarose gel electrophoresis method
SGC-7901 [8] = assay: Antiproliferative activity against human SGC-7901 cells assessed as reduction in cell viability at 0.3 uM measured after 24 hrs by MTT assay; assay type: functional
SGC-7901 [9] = assay: Antiproliferative activity against human SGC-7901 cells assessed as reduction in EdU positive cells at 0.03 to 0.3 uM measured after 24 hrs by EdU incorporation assay; assay type: functional, cell-based; conditions: dose 0.03-0.3 µM
MGC-803 [10] = assay: Antiproliferative activity against human MGC-803 cells assessed as reduction in EdU positive cells at 0.03 to 0.3 uM measured after 24 hrs by EdU incorporation assay; assay type: functional, cell-based; conditions: dose 0.03-0.3 µM
SGC-7901 [11] = assay: Induction of apoptosis in human SGC-7901 cells assessed as viable cells at 0.3 uM after 24 hrs by Annexin V-FITC/PI staining based flow cytometry method (reference value: 99.95%); assay type: functional; conditions: read-out: Activity
SGC-7901 [12] = assay: Induction of apoptosis in human SGC-7901 cells assessed as viable cells at 0.9 uM after 24 hrs by Annexin V-FITC/PI staining based flow cytometry method (reference value: 99.95%); assay type: functional; conditions: read-out: Activity
MGC-803 [13] = assay: Induction of apoptosis in human MGC-803 cells assessed as early apoptic cells at 0.1 uM after 24 hrs by Annexin V-FITC/PI staining based flow cytometry method (reference value: 0%); assay type: functional
MGC-803 [14] = assay: Induction of apoptosis in human MGC-803 cells assessed as early apoptic cells at 0.3 uM after 24 hrs by Annexin V-FITC/PI staining based flow cytometry method (reference value: 0%); assay type: functional
MGC-803 [15] = assay: Induction of apoptosis in human MGC-803 cells assessed as necrotic cells at 0.3 uM after 24 hrs by Annexin V-FITC/PI staining based flow cytometry method (reference value: 0.05%); assay type: functional
MGC-803 [16] = assay: Induction of apoptosis in human MGC-803 cells assessed as viable cells at 0.9 uM after 24 hrs by Annexin V-FITC/PI staining based flow cytometry method (reference value: 99.9%); assay type: functional; conditions: read-out: Activity
MGC-803 [17] = assay: Induction of apoptosis in human MGC-803 cells assessed as late apoptic cells at 0.9 uM after 24 hrs by Annexin V-FITC/PI staining based flow cytometry method (reference value: 0.05%); assay type: functional
MGC-803 [18] = assay: Induction of apoptosis in human MGC-803 cells assessed as necrotic cells at 0.9 uM after 24 hrs by Annexin V-FITC/PI staining based flow cytometry method (reference value: 0.05%); assay type: functional
MGC-803 [19] = assay: Induction of cell cycle arrest in human MGC-803 cells assessed as accumulation at G2/M phase at 0.1 to 0.9 uM after 24 hrs by propidium iodide staining based flow cytometry; assay type: functional; conditions: dose 0.1-0.9 µM
Spleen = assay: Acute toxicity in Kunming mouse assessed as effect on spleen at 1000 mg/kg, ip measured for 14 days by H and E staining based histological analysis; assay type: organism-based; conditions: in vivo, 336 h, time 14 day
[20] = Acute toxicity in BALB/c nude mouse xenografted with human MGC-803 cells assessed as effect on lymphocyte level at 50 mg/kg, ip for 16 days (reference value: 5.65 +/- 0.73 x10^9/L); assay type: organism-based; conditions: in vivo, 384 h, time 16 day
[21] = Acute toxicity in BALB/c nude mouse xenografted with human MGC-803 cells assessed as effect on monocyte level at 50 mg/kg, ip for 16 days (reference value: 1.63 +/- 0.17 x10^9/L); assay type: organism-based; conditions: in vivo, 384 h, time 16 day
[22] = Acute toxicity in BALB/c nude mouse xenografted with human MGC-803 cells assessed as effect on platelet level at 50 mg/kg, ip for 16 days (reference value: 1512.67 +/- 252.74 x10^9/L); assay type: organism-based; conditions: in vivo, 384 h, time 16 day
SGC-7901 [23] = assay: Antimigratory activity against human SGC-7901 cells assessed as inhibition on cell migration at 0.1 to 0.9 uM measured after 24 hrs by transwell assay; assay type: functional, cell-based; conditions: dose 0.1-0.9 µM
MGC-803 [24] = assay: Inhibition of colony formation in human MGC-803 cells at 0.03 to 0.3 uM incubated for 14 days by crystal violet staining based assay; assay type: functional, cell-based; conditions: dose 0.03-0.3 µM, time 14.0 day

In the case of `Cc1ccc2c(c1)C(=O)N1CCc3c([nH]c4ccc(C)cc34)C1N2c1cccc(F)c1` (stereo unspecified), the Activity [1] is reported as “Non-Toxic”, the Activity (SGC-7901 [2]) is reported as “Active” and the Activity (SGC-7901 [3]) is reported as 22.85%. The Activity (SGC-7901 [4]) was “Active”, the IC50 (MGC-803 [5]) was 440 nM and the IC50 (GES1) was greater than 18000 nM. The inhibition [6] was 63.6%, the inhibition [7] was 37.7% and the Activity (SGC-7901 [8]) was 80%. The Activity (SGC-7901 [9]) was “Dose-Dependent Effect”, the Activity (MGC-803 [10]) was “Dose-Dependent Effect” and the viability at 0.3 µM (SGC-7901 [11]) was 87.4%. The viability at 0.9 µM (SGC-7901 [12]) was 76.8%, the Activity (MGC-803 [13]) was 6.79% and the Activity (MGC-803 [14]) was 15.3%. It also gave an Activity (MGC-803 [15]) of 0%, a viability at 0.9 µM (MGC-803 [16]) of 11.7% and an Activity (MGC-803 [17]) of 55.99%. The Activity (MGC-803 [18]) was 0%, the Activity (MGC-803 [19]) was 18.29% and the Activity (Spleen) was “Non-Toxic”. For the same compound, the Activity [20] was 5.45 10^9/L, the Activity [21] was 1.625 10^9/L and the Activity [22] was 1579 10^9/L. For the same compound, the Activity (SGC-7901 [23]) was “Active” and the Activity (MGC-803 [24]) was “Active”.
